Data reported in PMC4548482 (Neuropharmacology, 2015).

Experiments:
[1] = target: T1, α7 L247T nAChRs (Homo sapiens, UniProt P36544, L270T); test: Two-electrode voltage-clamp recording, human α7 nAChRs containing the L247T mutation in Xenopus oocytes; assay type: cell-based; conditions: for Imax: normalised to the maximum response to acetylcholine
T1 construct: expressed in transfected cells; host or cells: Xenopus laevis oocytes (cRNA injection)
Protocol: (§1) Site-directed mutagenesis was performed on human nAChR α7 subunit cDNA in plasmid pSP64GL using the QuikChange mutagenesis kit (Stratagene) and verified by nucleotide sequencing. Plasmid pSP64GL containing wild-type or mutated human α7 cDNA was linearized with BamHI and purified with QIAQuik PCR purification kit (Qiagen). In vitro synthesis of cRNA was performed using mMessage mMachine SP6 transcription kit (Life Technologies).
(§2) Oocytes were isolated from adult female Xenopus laevis following procedures that have been approved by UCL's Biological Services Management Group and the UK Home Office. […] Heterologous expression was achieved by injection of wild-type or mutated α7 cRNA (6–12 ng) into oocyte cytoplasm. Oocytes were injected in a volume of 20–30 nl using a Drummond variable volume microinjector. […] Experiments were performed on oocytes after 3–5 days of incubation.

[2] = target: T2, α7 M260L nAChRs (Homo sapiens, UniProt P36544, M283L); test: Two-electrode voltage-clamp recording, human α7 nAChRs containing the M260L mutation in Xenopus oocytes; assay type: cell-based; conditions: for Imax: normalised to the maximum response to acetylcholine
T2 construct: expressed in transfected cells; host or cells: Xenopus laevis oocytes (cRNA injection)
Protocol: as §1, §2

[3] = target: T3, human α7 nAChRs (Homo sapiens, UniProt P36544); test: Two-electrode voltage-clamp recording, wild-type human α7 nAChRs expressed in Xenopus oocytes; assay type: cell-based; conditions: Wild-type α7; for Imax: normalised to the maximum response to acetylcholine
T3 construct: expressed in transfected cells; host or cells: Xenopus laevis oocytes (cRNA injection)
Protocol: All plasmid constructs used in this study have been described previously.
as §2

[4] = target: T3, human α7 nAChRs; assay type: binding

T3 sequence (P36544 23-502): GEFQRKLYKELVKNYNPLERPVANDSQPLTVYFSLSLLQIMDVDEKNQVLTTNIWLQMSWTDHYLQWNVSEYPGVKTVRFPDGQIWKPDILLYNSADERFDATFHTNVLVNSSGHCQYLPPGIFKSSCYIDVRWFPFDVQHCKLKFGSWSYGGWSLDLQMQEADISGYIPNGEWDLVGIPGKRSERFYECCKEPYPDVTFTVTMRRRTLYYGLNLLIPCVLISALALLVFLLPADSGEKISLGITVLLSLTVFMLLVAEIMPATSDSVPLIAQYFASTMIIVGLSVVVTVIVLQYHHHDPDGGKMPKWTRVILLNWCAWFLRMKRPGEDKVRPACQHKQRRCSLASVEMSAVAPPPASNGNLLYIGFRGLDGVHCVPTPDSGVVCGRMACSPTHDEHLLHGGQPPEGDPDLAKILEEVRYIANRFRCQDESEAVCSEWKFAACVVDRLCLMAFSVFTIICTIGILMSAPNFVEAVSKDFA
T1 sequence (P36544 23-502 L270T): as the sequence (P36544 23-502) above, with L248T counted along it
T2 sequence (P36544 23-502 M283L): as the sequence (P36544 23-502) above, with M261L counted along it

Row | SMILES | nH (Hill coefficient) ([1]; α7 L247T, mean ± SEM) | EC50 ([1]; α7 L247T, mean ± SEM, read-out: EC50 (agonist)) [nM] | Imax ([1]; α7 L247T) | nH (Hill coefficient) ([2]; α7 M260L, mean ± SEM) | EC50 ([2]; α7 M260L, mean ± SEM, read-out: EC50 (agonist)) [nM] | Imax ([2]; α7 M260L) | nH (Hill coefficient) ([3]; mean ± SEM) | EC50 ([3]; mean ± SEM, read-out: EC50 (agonist)) [nM] | Imax [3] | Antagonism of responses to acetylcholine ([1]; L247T α7, MLA 1 μM pre- and co-applied, acetylcholine 10 μM) | Displacement of [3H]-α-bungarotoxin binding [4] | Antagonism of responses to acetylcholine ([2]; M260L α7, MLA 1 μM pre- and co-applied, acetylcholine 1 mM)
1 | NS(=O)(=O)c1ccc2c(c1)[C@H]1C=CC[C@H]1[C@@H](c1ccc(Br)cc1)N2 [4BP-TQS, cis-cis-4-(4-bromophenyl)-3a,4,5,9b-tetrahydro-3H-cyclopenta[c]quinoline-8-sulfonamide] | 2.3 ± 0.2 | 30 ± 3 | 1.0 ± 0.1 | 2.3 ± 0.4 | 2500 ± 400 | 9.0 ± 1.2 | 5.2 ± 0.8 | 4200 ± 300 | 4.4 ± 0.3 |  |  | 
2 | CC(=O)OCC[N+](C)(C)C [Acetylcholine, acetylcholine] | 2.1 ± 0.2 |  | 1 |  |  | 1 | 1.4 ± 0.2 |  | 1 |  |  | 
3 | CCN1C[C@]2(COC(=O)c3ccccc3N3C(=O)C[C@H](C)C3=O)CC[C@H](OC)[C@@]34[C@@H]5C[C@H]6[C@H](OC)[C@@H]5[C@](O)(C[C@@H]6OC)[C@@](O)([C@@H](OC)[C@H]23)[C@@H]14 [MLA, methyllycaconitine] |  |  |  |  |  |  |  |  |  | blocked responses to acetylcholine | complete displacement | blocked responses to acetylcholine
